# From the NIST ThermoML archive (doi:10.1016/j.jct.2006.09.012)
# ± gives the expanded uncertainty stated by the source.
# Details: Liquid, Buoyancy - hydrostatic balance with magnetic suspension - two sinkers
smiles,measurement,setting,value
CCOC(F)(C(F)(F)C(F)(F)C(F)(F)F)C(F)(C(F)(F)F)C(F)(F)F (stereo not drawn) [2-trifluoromethyl-3-ethoxydodecafluorohexane],mass density,"285 K, 1204.2 kPa",1650.59 ± 2.2 kg/m3
same,mass density,"285 K, 1204.8 kPa",1650.6 ± 2.2 kg/m3
same,mass density,"285 K, 1205.2 kPa",1650.59 ± 2.2 kg/m3
same,mass density,"285 K, 5212.8 kPa",1659.79 ± 2.2 kg/m3
same,mass density,"285 K, 5220.2 kPa",1659.81 ± 2.2 kg/m3
same,mass density,"285 K, 10181 kPa",1670.44 ± 2.2 kg/m3
same,mass density,"285 K, 10197 kPa",1670.47 ± 2.2 kg/m3
same,mass density,"308 K, 19845 kPa",1649.2 ± 2.2 kg/m3
same,mass density,"308.01 K, 1314.5 kPa",1604.24 ± 2.1 kg/m3
same,mass density,"308.01 K, 1320.9 kPa",1604.26 ± 2.1 kg/m3
same,mass density,"308.01 K, 1331 kPa",1604.29 ± 2.1 kg/m3
same,mass density,"308.01 K, 5215.7 kPa",1614.98 ± 2.1 kg/m3
same,mass density,"308.01 K, 5219.6 kPa",1614.99 ± 2.1 kg/m3
same,mass density,"308.01 K, 5223.4 kPa",1615 ± 2.1 kg/m3
same,mass density,"308.01 K, 10450 kPa",1628.17 ± 2.2 kg/m3
same,mass density,"308.01 K, 10468 kPa",1628.21 ± 2.2 kg/m3
same,mass density,"308.01 K, 10476 kPa",1628.24 ± 2.2 kg/m3
same,mass density,"308.01 K, 19786 kPa",1649.07 ± 2.2 kg/m3
same,mass density,"308.01 K, 19825 kPa",1649.16 ± 2.2 kg/m3
same,mass density,"350 K, 1285.8 kPa",1515.32 ± 2.1 kg/m3
same,mass density,"350 K, 1286 kPa",1515.32 ± 2.1 kg/m3
same,mass density,"350 K, 1286.3 kPa",1515.32 ± 2.1 kg/m3
same,mass density,"350 K, 1286.4 kPa",1515.32 ± 2.1 kg/m3
same,mass density,"350 K, 1286.7 kPa",1515.32 ± 2.1 kg/m3
same,mass density,"350 K, 1286.8 kPa",1515.32 ± 2.1 kg/m3
same,mass density,"350 K, 5286.1 kPa",1531.01 ± 2.1 kg/m3
same,mass density,"350 K, 5291 kPa",1531.03 ± 2.1 kg/m3
same,mass density,"350 K, 10388 kPa",1548.66 ± 2.1 kg/m3
same,mass density,"350 K, 10394 kPa",1548.69 ± 2.1 kg/m3
same,mass density,"350 K, 10401 kPa",1548.71 ± 2.1 kg/m3
same,mass density,"350 K, 16836 kPa",1568.2 ± 2.2 kg/m3
same,mass density,"350 K, 16850 kPa",1568.24 ± 2.2 kg/m3
same,mass density,"350 K, 17082 kPa",1568.89 ± 2.2 kg/m3
same,mass density,"350 K, 19716 kPa",1576.14 ± 2.2 kg/m3
same,mass density,"350 K, 19732 kPa",1576.18 ± 2.2 kg/m3
same,mass density,"350 K, 19786 kPa",1576.33 ± 2.2 kg/m3
same,mass density,"400 K, 1164.3 kPa",1398.22 ± 2 kg/m3
same,mass density,"400 K, 1164.4 kPa",1398.22 ± 2 kg/m3
same,mass density,"400 K, 1164.7 kPa",1398.23 ± 2 kg/m3
same,mass density,"400 K, 5225.5 kPa",1424.08 ± 2 kg/m3
same,mass density,"400 K, 5227.2 kPa",1424.09 ± 2 kg/m3
same,mass density,"400 K, 5228.8 kPa",1424.1 ± 2 kg/m3
same,mass density,"400 K, 9975.6 kPa",1448.91 ± 2.1 kg/m3
same,mass density,"400 K, 9979.7 kPa",1448.93 ± 2.1 kg/m3
same,mass density,"400 K, 9984.1 kPa",1448.95 ± 2.1 kg/m3
same,mass density,"400 K, 19197 kPa",1487.27 ± 2.1 kg/m3
same,mass density,"400 K, 19208 kPa",1487.3 ± 2.1 kg/m3
same,mass density,"400 K, 19218 kPa",1487.34 ± 2.1 kg/m3
same,mass density,"400 K, 19258 kPa",1487.49 ± 2.1 kg/m3
same,mass density,"400 K, 19276 kPa",1487.55 ± 2.1 kg/m3
same,mass density,"400 K, 19287 kPa",1487.59 ± 2.1 kg/m3
same,mass density,"400 K, 19317 kPa",1487.71 ± 2.1 kg/m3
same,mass density,"400 K, 19328 kPa",1487.74 ± 2.1 kg/m3
same,mass density,"400 K, 19347 kPa",1487.81 ± 2.1 kg/m3
same,mass density,"400 K, 19369 kPa",1487.89 ± 2.1 kg/m3
same,mass density,"400 K, 19380 kPa",1487.93 ± 2.1 kg/m3
same,mass density,"400 K, 19391 kPa",1487.97 ± 2.1 kg/m3
same,mass density,"400 K, 19416 kPa",1488.07 ± 2.1 kg/m3
same,mass density,"400 K, 19495 kPa",1488.35 ± 2.1 kg/m3
same,mass density,"400 K, 19519 kPa",1488.44 ± 2.1 kg/m3
same,mass density,"400 K, 19543 kPa",1488.53 ± 2.1 kg/m3
same,mass density,"400 K, 19560 kPa",1488.59 ± 2.1 kg/m3
same,mass density,"400 K, 19582 kPa",1488.67 ± 2.1 kg/m3
